In ChEMBL document CHEMBL3885861, “Open TG-GATES”:

Organism: Rattus norvegicus
Assay: Open TG-GATES - Regimen: Single
Format: toxicity, organism-based, Sprague-Dawley
Parameters: regimen Single, gender Male, age 6 weeks
Details: in vivo, po, 0 mg/kg, route gavage, dose level Control; for APTT / Bas / Eos / Fbg / Hb / Ht / Lym / MCH / MCHC / MCV / Mono / Neu / PT / Plat / RBC / Ret / WBC: tissue Blood; for KIDNEY_L / KIDNEY_R / KIDNEY_TOTAL: tissue Kidney; for LIVER: tissue Liver; for A/G / ALP / ALT / AST / BUN / CRE / Ca / Cl / DBIL / GLC / IP / K / LDH / Na / PL / RALB / TBIL / TC / TG / TP / gamma-GTP: tissue Plasma

In the case of `CC(C)(S)[C@@H](N)C(=O)O` [PENICILLAMINE], the TERMINAL_BW (3 h) is reported as 202 g, the APTT (3 h) is reported as 15 s and the Bas (3 h) is reported as 0%. It also gave an Eos (3 h) of 1%, a Fbg (3 h) of 302 mg/dL and a Hb (3 h) of 13.8 g/dL. For the same compound, the Ht (3 h) was 42.5%, the Lym (3 h) was 79.4% and the MCH (3 h) was 21.6 pg. The MCHC (3 h) was 32.5%, the MCV (3 h) was 66.4 fL and the Mono (3 h) was 2.8%. For the same compound, the Neu (3 h) was 15.8%, the PT (3 h) was 14.4 s and the Plat (3 h) was 123.9 x10_4/uL. It also gave an RBC (3 h) of 639.6 x10_4/ul, a Ret (3 h) of 9.1% and a WBC (3 h) of 90 x10_2/uL. The KIDNEY_L (3 h) was 0.9 g, the KIDNEY_R (3 h) was 0.9 g and the KIDNEY_TOTAL (3 h) was 1.7 g. For the same compound, the LIVER (3 h) was 9 g, the A/G (3 h) was 0.9 and the ALP (3 h) was 1505 IU/L. The ALT (3 h) was 42.2 IU/L, the AST (3 h) was 75.2 IU/L and the BUN (3 h) was 10 mg/dL. For the same compound, the CRE (3 h) was 0.2 mg/dL, the Ca (3 h) was 11.1 mg/dL and the Cl (3 h) was 106.2 meq/L. For the same compound, the DBIL (3 h) was 0.014 mg/dL, the GLC (3 h) was 178.8 mg/dL and the IP (3 h) was 8.4 mg/dL. The K (3 h) was 4.4 meq/L, the LDH (3 h) was 74.6 IU/L and the Na (3 h) was 141.8 meq/L. For the same compound, the PL (3 h) was 137.4 mg/dL, the RALB (3 h) was 2.6 g/dL and the TBIL (3 h) was 0.032 mg/dL. For the same compound, the TC (3 h) was 71.4 mg/dL, the TG (3 h) was 72.6 mg/dL and the TP (3 h) was 5.3 g/dL. It also gave a gamma-GTP (3 h) of 1.2 IU/L, a TERMINAL_BW (6 h) of 201.2 g and an APTT (6 h) of 16.2 s. The Bas (6 h) was 0%, the Eos (6 h) was 1% and the Fbg (6 h) was 301.2 mg/dL. It also gave a Hb (6 h) of 13.3 g/dL, a Ht (6 h) of 41.1% and a Lym (6 h) of 79.2%. It also gave an MCH (6 h) of 20.6 pg, an MCHC (6 h) of 32.4% and an MCV (6 h) of 63.7 fL. It also gave a Mono (6 h) of 2.6%, a Neu (6 h) of 16.2% and a PT (6 h) of 14.3 s. The Plat (6 h) was 130.7 x10_4/uL, the RBC (6 h) was 646.2 x10_4/ul and the Ret (6 h) was 8.8%. The WBC (6 h) was 87.2 x10_2/uL, the KIDNEY_L (6 h) was 0.9 g and the KIDNEY_R (6 h) was 0.9 g. The KIDNEY_TOTAL (6 h) was 1.7 g, the LIVER (6 h) was 8.5 g and the A/G (6 h) was 0.9. It also gave an ALP (6 h) of 1217 IU/L, an ALT (6 h) of 34.4 IU/L and an AST (6 h) of 70.6 IU/L. The BUN (6 h) was 9.6 mg/dL, the CRE (6 h) was 0.2 mg/dL and the Ca (6 h) was 11 mg/dL. It also gave a Cl (6 h) of 106 meq/L, a DBIL (6 h) of 0.008 mg/dL and a GLC (6 h) of 175.8 mg/dL. The IP (6 h) was 8.9 mg/dL, the K (6 h) was 4.3 meq/L and the LDH (6 h) was 76 IU/L. For the same compound, the Na (6 h) was 142.8 meq/L, the PL (6 h) was 135 mg/dL and the RALB (6 h) was 2.5 g/dL. The TBIL (6 h) was 0.038 mg/dL, the TC (6 h) was 75.8 mg/dL and the TG (6 h) was 52.4 mg/dL. For the same compound, the TP (6 h) was 5.3 g/dL, the gamma-GTP (6 h) was 1 IU/L and the TERMINAL_BW (9 h) was 199.9 g. The APTT (9 h) was 16.9 s, the Bas (9 h) was 0% and the Eos (9 h) was 0.6%. It also gave a Fbg (9 h) of 300 mg/dL, a Hb (9 h) of 13.5 g/dL and a Ht (9 h) of 41.9%. It also gave a Lym (9 h) of 80%, an MCH (9 h) of 21.1 pg and an MCHC (9 h) of 32.3%. It also gave an MCV (9 h) of 65.3 fL, a Mono (9 h) of 2.6% and a Neu (9 h) of 16.2%. The PT (9 h) was 14.5 s, the Plat (9 h) was 126.8 x10_4/uL and the RBC (9 h) was 641.4 x10_4/ul. For the same compound, the Ret (9 h) was 9.1%, the WBC (9 h) was 92.7 x10_2/uL and the KIDNEY_L (9 h) was 0.9 g. It also gave a KIDNEY_R (9 h) of 0.9 g, a KIDNEY_TOTAL (9 h) of 1.8 g and an LIVER (9 h) of 8.1 g. It also gave an A/G (9 h) of 0.9, an ALP (9 h) of 1372.8 IU/L and an ALT (9 h) of 40.6 IU/L. It also gave an AST (9 h) of 72 IU/L, a BUN (9 h) of 8.6 mg/dL and a CRE (9 h) of 0.1 mg/dL. The Ca (9 h) was 10.7 mg/dL, the Cl (9 h) was 106.4 meq/L and the DBIL (9 h) was 0.006 mg/dL. It also gave a GLC (9 h) of 187.4 mg/dL, an IP (9 h) of 9.8 mg/dL and a K (9 h) of 4.2 meq/L. It also gave an LDH (9 h) of 68.4 IU/L, a Na (9 h) of 143.6 meq/L and a PL (9 h) of 144 mg/dL. For the same compound, the RALB (9 h) was 2.6 g/dL, the TBIL (9 h) was 0.034 mg/dL and the TC (9 h) was 82 mg/dL. For the same compound, the TG (9 h) was 55 mg/dL, the TP (9 h) was 5.4 g/dL and the gamma-GTP (9 h) was 1.2 IU/L. The TERMINAL_BW (24 h) was 214.6 g, the APTT (24 h) was 16.2 s and the Bas (24 h) was 0%. For the same compound, the Eos (24 h) was 1%, the Fbg (24 h) was 317.2 mg/dL and the Hb (24 h) was 13.3 g/dL. For the same compound, the Ht (24 h) was 40.9%, the Lym (24 h) was 76.8% and the MCH (24 h) was 21.3 pg. The MCHC (24 h) was 32.6%, the MCV (24 h) was 65.2 fL and the Mono (24 h) was 3.6%. It also gave a Neu (24 h) of 17.6%, a PT (24 h) of 13.9 s and a Plat (24 h) of 125.8 x10_4/uL. It also gave an RBC (24 h) of 626.4 x10_4/ul, a Ret (24 h) of 8.2% and a WBC (24 h) of 92.6 x10_2/uL. It also gave a KIDNEY_L (24 h) of 0.9 g, a KIDNEY_R (24 h) of 0.9 g and a KIDNEY_TOTAL (24 h) of 1.8 g. The LIVER (24 h) was 9.5 g, the A/G (24 h) was 0.9 and the ALP (24 h) was 1418.8 IU/L. For the same compound, the ALT (24 h) was 43 IU/L, the AST (24 h) was 74.6 IU/L and the BUN (24 h) was 13.2 mg/dL. It also gave a CRE (24 h) of 0.2 mg/dL, a Ca (24 h) of 11.1 mg/dL and a Cl (24 h) of 105.8 meq/L. For the same compound, the DBIL (24 h) was 0.01 mg/dL, the GLC (24 h) was 174.8 mg/dL and the IP (24 h) was 7.2 mg/dL. For the same compound, the K (24 h) was 4 meq/L, the LDH (24 h) was 80 IU/L and the Na (24 h) was 143.4 meq/L. The PL (24 h) was 160.4 mg/dL, the RALB (24 h) was 2.6 g/dL and the TBIL (24 h) was 0.026 mg/dL. It also gave a TC (24 h) of 83 mg/dL, a TG (24 h) of 115.6 mg/dL and a TP (24 h) of 5.5 g/dL. The gamma-GTP (24 h) was 1 IU/L.
